Data set [1] has as its target T1, Cannabinoid receptor 1 (Homo sapiens, UniProt P21554). Nature of the data set: Positive allosteric modulation of human CB1 receptor expressed in CHOK1 cells assessed as increase in CP55940-induced beta-arrestin recruitment at 1000 nM preincubated for 30 mins followed by CP55940 addition and measured after 90 to 180 mins by PathHunter assay relative to CP55940. The data set is classed as cell-based. (Activated receptors often draw arrestin, which recruitment assays turn into a signal.)

Data set [2] deals with T1, Cannabinoid receptor 1. The data set is described as follows: Positive allosteric modulation of human CB1 receptor expressed in CHOK1 cells assessed as increase in CP55940-induced beta-arrestin recruitment at 1 uM preincubated for 30 mins followed by CP55940 addition and measured after 90 to 180 mins by PathHunter assay relative to CP55940. The data set is classed as cell-based.

The nature of data set [3]: Half life in human liver microsomes at 3 uM in presence of NADPH by LC-MS/MS analysis. It is filed as ADME, Microsome.
Data set [4] can be described thus: Half life in rat liver microsomes at 3 uM in presence of NADPH by LC-MS/MS analysis. The data set is classed as ADME, Microsome.
Data set [5] deals with T1, Cannabinoid receptor 1. Nature of the data set: Agonist activity at human CB1 receptor expressed in CHOK1 cells assessed as induction of beta-arrestin recruitment measured after 30 mins by PathHunter assay. It is filed as cell-based.
The target in data set [6] is T1, Cannabinoid receptor 1. Nature of the data set: Positive allosteric modulation of human CB1 receptor expressed in CHOK1 cells assessed as increase in CP55940-induced beta-arrestin recruitment preincubated for 30 mins followed by CP55940 addition and measured after 90 to 180 mins by PathHunter assay. The data set is classed as cell-based.

The structures appear in SMILES notation.

T1 sequence (P21554 whole entry): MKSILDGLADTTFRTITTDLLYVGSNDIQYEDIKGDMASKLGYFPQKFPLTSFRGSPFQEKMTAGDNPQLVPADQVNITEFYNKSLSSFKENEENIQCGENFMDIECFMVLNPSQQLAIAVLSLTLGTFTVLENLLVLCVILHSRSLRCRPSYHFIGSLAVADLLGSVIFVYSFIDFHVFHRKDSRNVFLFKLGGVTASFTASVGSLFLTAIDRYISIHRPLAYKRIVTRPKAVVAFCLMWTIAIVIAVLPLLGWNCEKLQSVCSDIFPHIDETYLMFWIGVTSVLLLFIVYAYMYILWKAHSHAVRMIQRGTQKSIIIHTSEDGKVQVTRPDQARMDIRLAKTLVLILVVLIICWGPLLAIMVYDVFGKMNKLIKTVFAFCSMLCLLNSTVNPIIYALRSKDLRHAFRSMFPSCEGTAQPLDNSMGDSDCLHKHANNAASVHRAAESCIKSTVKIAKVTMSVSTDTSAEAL

With `Cc1ccc2c(C(CC#N)c3ccccc3)c(-c3ccccc3)[nH]c2c1` (racemic), the Activity in data set [1] was greater than 50%. Turning to `OCc1ccc2c(C(CC(F)(F)F)c3cccs3)c(-c3ccccc3)[nH]c2c1` (racemic), the Activity in data set [2] is less than 50%.

Turning to `CC(C)CN(C(=O)C(F)(F)F)c1c(-c2ccccc2)[nH]c2ccccc12`, in data set [2], the Activity was found to be 50%.

For `O=[N+]([O-])CC(c1cccs1)c1c(-c2ccccc2)[nH]c2cc(C(F)(F)F)ccc12` (racemic), the t1/2 turned out to be 30.7 min in data set [3] and 15.6 min in data set [4]. Also, the EC50 (as a rule, the concentration that produces a half-maximal response) in data set [5] stood at 974 nM; in data set [6], 284 nM. As for `Cc1ccc2c(C(c3ccccc3)C(C#N)C#N)c(-c3ccccc3)[nH]c2c1` (racemic), in data set [1], the Activity is greater than 50%. Still for that read-out and setting: the result for `Cc1ccc2[nH]c(-c3ccccc3)c(C(C[N+](=O)[O-])c3cccs3)c2c1` (racemic) reads greater than 50%. On to `O=C(O)CC(c1ccccc1)c1c(-c2ccccc2)[nH]c2ccccc12` (racemic) [listing 1 of 2 here], for which the t1/2 in data set [3] is recorded as 62.7 min. `O=[N+]([O-])CC(c1cccs1)c1c(-c2ccc(Cl)cc2)[nH]c2cc(Cl)ccc12` (racemic): in data set [2], the Activity was less than 50%.

For the molecule `CS(=O)(=O)c1ccc(-c2[nH]c3cc(Cl)ccc3c2C(C[N+](=O)[O-])c2cccs2)cc1` (racemic), the Activity in data set [2] is less than 50%. Consider `CC(=O)Nc1ccc2c(C(CC(F)(F)F)c3cccs3)c(-c3ccccc3)[nH]c2c1` (racemic), for which, in data set [2], the Activity is less than 50%.

Turning to `O=[N+]([O-])CC(c1cccs1)c1c(-c2ccccc2)[nH]c2ccc([N+](=O)[O-])cc12` (racemic), the Activity in data set [2] is less than 50%.

As for `N#Cc1ccc2c(C(C[N+](=O)[O-])c3cccs3)c(-c3ccccc3)[nH]c2c1` (racemic), the Activity in data set [1] was greater than 50%.

For `Cc1ccc2c(C(CC(F)(F)F)c3ccco3)c(-c3ccccc3)[nH]c2c1` (racemic), in data set [1], the Activity was greater than 50%.

`COC(=O)c1ccc(-c2[nH]c3cc(Cl)ccc3c2C(C[N+](=O)[O-])c2cccs2)cc1` (racemic): in data set [2], the Activity was less than 50%.

Take `COc1cccc(-c2[nH]c3cc(Cl)ccc3c2C(C[N+](=O)[O-])c2cccs2)c1` (racemic): the Activity in data set [2] was less than 50%. As to `Cc1ccc2c(C(C[N+](=O)[O-])c3cccs3)c(C3CCCC3)[nH]c2c1` (racemic), the Activity in data set [1] is greater than 50%. With `N#Cc1cccc(-c2[nH]c3cc(Cl)ccc3c2C(C[N+](=O)[O-])c2cccs2)c1` (racemic), the Activity in data set [2] is less than 50%. As to `COc1ccc(-c2[nH]c3cc(Cl)ccc3c2C(C[N+](=O)[O-])c2cccs2)cc1` (racemic), the Activity in data set [2] was less than 50%.

Regarding `OCC(c1ccccc1)c1c(-c2ccccc2)[nH]c2ccccc12` (racemic), the Activity in data set [2] is less than 50%. With `FC(F)(F)CC(c1ccccc1)c1c(-c2ccccc2)[nH]c2ccccc12` (racemic), the Activity in data set [1] is greater than 50%; in data set [2] it was 30 to 50%. With `Cc1ccc2c(C(C[N+](=O)[O-])c3cccs3)c(C3CCCCC3)[nH]c2c1` (racemic), the Activity in data set [2] was less than 50%. Same read-out and setting: the result for `O=C(O)CC(c1ccccc1)c1c(-c2ccccc2)[nH]c2ccccc12` (single isomer, unassigned; (+)) reads less than 50%. As to `Cc1ccc2c(C(C[N+](=O)[O-])c3cccs3)c(C3CC3)[nH]c2c1` (racemic), in data set [1], the Activity is greater than 50%. As for `O=C(C(c1ccccc1)c1c(-c2ccccc2)[nH]c2ccccc12)C(F)(F)F` (racemic), the Activity in data set [2] lay in the range of 30 to 50%. For `N#Cc1ccc2[nH]c(C3CCCCC3)c(C(C[N+](=O)[O-])c3cccs3)c2c1` (racemic), the t1/2 in data set [3] came to 21.4 min; in data set [4] it was 3.8 min. Moreover, in data set [2], the Activity was less than 50%.

For the molecule `N#Cc1ccc(-c2[nH]c3cc(Cl)ccc3c2C(C[N+](=O)[O-])c2cccs2)cc1` (racemic), in data set [2], the Activity is less than 50%.

On to `Nc1ccc2c(C(CC(F)(F)F)c3cccs3)c(-c3ccccc3)[nH]c2c1` (racemic), for which the Activity in data set [2] is less than 50%. In the case of `N#CCC(c1ccccc1)c1c(-c2ccccc2)[nH]c2cc(Cl)ccc12` (racemic), the values for the t1/2 in data set [3] and in data set [4] were 43.2 min and 22.5 min, respectively. For the same molecule, the EC50 was 2350 nM in data set [5] and 1110 nM in data set [6]. Consider `N#CC(C#N)C(c1ccccc1)c1c(-c2ccccc2)[nH]c2ccccc12` (racemic), for which the Activity in data set [2] is less than 50%. On the same count and under the same terms, under `Cc1ccc2[nH]c(-c3ccccc3)c(C(CC(F)(F)F)c3ccccc3)c2c1` (racemic) stands less than 50%; under `O=C(O)c1ccc(-c2[nH]c3cc(Cl)ccc3c2C(C[N+](=O)[O-])c2cccs2)cc1` (racemic), less than 50%.

As for `N#CC(C#N)C(c1ccccc1)c1c(-c2ccccc2)[nH]c2cc(Cl)ccc12` (racemic), the t1/2 in data set [3] stood at 29.6 min; in data set [4], 13.5 min. The Activity in data set [2] is less than 50%. For the molecule `N#CCC(c1ccccc1)c1c(-c2ccccc2)[nH]c2ccccc12` (racemic), in data set [2], the Activity is less than 50%. In the case of `O=C(N(CC1CC1)c1c(-c2ccccc2)[nH]c2ccccc12)C(F)(F)F`, the Activity in data set [2] turned out to be 50%. As to `Cc1ccc2c(C(C[N+](=O)[O-])c3cccs3)c(-c3ccc(Cl)cc3)[nH]c2c1` (racemic), the t1/2 came out at 24.2 min in data set [3] and 9.8 min in data set [4]. For the same molecule, the Activity in data set [2] was less than 50%. For `N#Cc1ccc2[nH]c(-c3ccccc3)c(C(C[N+](=O)[O-])c3cccs3)c2c1` (racemic) the same measures were 49.4 min, 8.2 min and less than 50%. `Cc1ccc2[nH]c(-c3ccccc3)c(C(CC(F)(F)F)c3cccs3)c2c1` (racemic): in data set [2], the Activity is less than 50%.

With `OC(C(c1ccccc1)c1c(-c2ccccc2)[nH]c2ccccc12)C(F)(F)F` (racemic), the t1/2 in data set [3] is on record as 39.4 min; in data set [4], 18.2 min. The Activity in data set [2] fell in the range of 30 to 50%.

In the case of `O=C(O)CC(c1ccccc1)c1c(-c2ccccc2)[nH]c2ccccc12` (stereo in doubt; (-)-26), the Activity in data set [2] is less than 50%. On the same count and under the same terms, under `O=C(O)CC(c1ccccc1)c1c(-c2ccccc2)[nH]c2ccccc12` (racemic) [listing 2 of 2 here] stands less than 50%; under `CC(=O)c1ccc(-c2[nH]c3cc(Cl)ccc3c2C(C[N+](=O)[O-])c2cccs2)cc1` (racemic), less than 50%. As to `Cc1ccc2c(C(CC3CC3)CC(F)(F)F)c(-c3ccccc3)[nH]c2c1` (racemic), the Activity in data set [1] is greater than 50%. With `O=[N+]([O-])CC(c1cccs1)c1c(-c2ccc(F)cc2)[nH]c2cc(Cl)ccc12` (racemic), in data set [2], the Activity is less than 50%. The same measure, in the same setting: under `Cc1ccc2c(C(C[N+](=O)[O-])c3cccs3)c(-c3ccc(F)cc3)[nH]c2c1` (racemic) stands less than 50%. In the case of `Cc1ccc2c(C(c3cccs3)C(C#N)C#N)c(-c3ccccc3)[nH]c2c1` (racemic), in data set [1], the Activity was greater than 50%. Also, the t1/2 was 31.2 min in data set [3] and 4.9 min in data set [4].

For the molecule `CN(C)c1ccc(-c2[nH]c3cc(Cl)ccc3c2C(C[N+](=O)[O-])c2cccs2)cc1` (racemic), the Activity in data set [2] is less than 50%. On the same count and under the same terms, the result for `CS(=O)(=O)Nc1ccc2c(C(CC(F)(F)F)c3cccs3)c(-c3ccccc3)[nH]c2c1` (racemic) reads less than 50%; that for `O=C(O)c1ccc2c(C(CC(F)(F)F)c3cccs3)c(-c3ccccc3)[nH]c2c1` (racemic), less than 50%.
